The source of these data is US7482342B2, “Indazolecarboxamide derivatives, preparation and use thereof as CDK1, CDK2 and CDK4 inhibitors” (sanofi-aventis, priority 2002, dated 2009).

The structures appear in SMILES notation. Some results are limits rather than exact numbers.

The conditions of data set [1]: prior art; cited from earlier work.

Broadly, the melting point is the temperature, or range, at which the solid turns liquid. As to `O=C(NCCCn1ccnc1)c1n[nH]c2ccccc12`, the melting point was in the range of 154 to 155 °C.
Same read-out and setting: for `CCOC(=O)c1cccc(NC(=O)c2n[nH]c3ccccc23)c1` the value was 187 to 188 °C.
Same read-out and setting: the figure for `O=C(O)c1cccc(NC(=O)c2n[nH]c3ccccc23)c1` is greater than 250 °C; for `O=C(Nc1ccncc1)c1n[nH]c2ccc([N+](=O)[O-])cc12` it is greater than 260 °C; for `O=C(Nc1ccncc1)c1n[nH]c2ccc(I)cc12` it is greater than 260 °C.
The compound `O=C(Nc1ccc(Nc2ccccc2)cc1)c1n[nH]c2ccccc12` [Compound No. 4, N-(4-Phenylaminophenyl)-1H-indazole-3-carboxamide] showed a melting point of 218 °C.
Turning to `Cc1ccc(CNC(=O)c2n[nH]c3ccccc23)cc1` [N-(4-Methylbenzyl)-1H-indazole-3-carboxamide], in data set [1], the pharmacological activity entry was “no pharmacological activity”.
